In US20230220021A1, “CYCLIC PEPTIDE INHIBITORS OF PSD-95 AND USES THEREOF” (University of Copenhagen, priority 2020, published 2023):
Where a SMILES comes first, the peptide text is derived from it. Where no end group is shown, it is not given here. [ ]: non-standard residue; d: D form.

Key:
[1] = molecular target: T1, PSD-95-PDZ2 (Homo sapiens, UniProt P78352); experiment: Isothermal titration calorimetry (ITC); format: binding
T1 construct: 7xHis (N); made in house; host or cells: Escherichia coli B21 pLys (for the mutants, 'as previously described')
Procedure: Isothermal titration calorimetry (ITC). The ITC assays were performed in NaPi 50 nM, 50 nM NaCl, pH 7.2 buffer filtered with a Corning® bottle-top vacuum filter system of a pore size of 0.22 μM, that was used to dissolve the peptides. Proteins were dialyzed against this buffer using Amicon® Ultra-15 centrifugal filter units, with a MWCO 3000 Da.
This assay was performed on an ITC200. The instrument differential power (DP) was set to 10 and the syringe rotating speed to 600 RPM. The assay setup consisted of introducing the protein inside the cell and the peptide (titrant) on the syringe. Calorimetry was performed at 25° C. Each analysis was performed in triplicates. Furthermore, several runs of peptide into buffer were performed in order to remove injection residual heat. Runs were analyzed with Origin 7.0 software (OriginLab).

[2] = molecular target: plasmin (Homo sapiens, UniProt P00747); experiment: In vitro plasmin stability; format: in vitro ADME; conditions: 100 μM ligand, PBS with plasmin (10 μg/mL), 37° C., 0 to 360 minutes, mean n=3
plasmin, sequence (P00747 581-810 limits assumed, species assumed): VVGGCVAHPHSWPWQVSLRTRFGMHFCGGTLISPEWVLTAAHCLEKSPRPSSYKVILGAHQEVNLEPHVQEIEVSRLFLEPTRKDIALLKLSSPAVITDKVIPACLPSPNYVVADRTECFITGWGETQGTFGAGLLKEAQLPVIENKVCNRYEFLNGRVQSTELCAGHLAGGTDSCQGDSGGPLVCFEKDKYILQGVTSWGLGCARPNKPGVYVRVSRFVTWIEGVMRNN
plasmin, sequence (P00747 97-580 partner limits assumed, species assumed): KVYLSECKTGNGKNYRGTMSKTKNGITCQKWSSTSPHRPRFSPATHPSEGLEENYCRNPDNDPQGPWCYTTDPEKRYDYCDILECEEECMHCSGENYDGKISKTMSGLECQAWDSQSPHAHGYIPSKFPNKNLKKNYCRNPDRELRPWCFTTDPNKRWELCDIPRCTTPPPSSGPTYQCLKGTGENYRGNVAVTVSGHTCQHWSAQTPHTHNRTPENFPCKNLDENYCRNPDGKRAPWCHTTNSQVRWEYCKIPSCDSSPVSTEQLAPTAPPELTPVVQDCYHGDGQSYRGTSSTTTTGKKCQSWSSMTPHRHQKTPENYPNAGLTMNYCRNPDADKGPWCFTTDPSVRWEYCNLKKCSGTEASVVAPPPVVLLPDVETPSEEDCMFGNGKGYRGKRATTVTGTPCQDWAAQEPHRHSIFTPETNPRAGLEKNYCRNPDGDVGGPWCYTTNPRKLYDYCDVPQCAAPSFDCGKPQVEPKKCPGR
Procedure: The in vitro plasmin stability of peptides with SEQ ID NOs: 12, 68, 99 and 163 were determined by incubating 100 μM of ligand in phosphate buffered saline (PBS) supplemented with plasmin (10 μg/mL) at 37° C. for 0 to 360 minutes. At selected time points during the incubation, the ligands were extracted from 80 μL of assay matrix by treatment with 80 μL of 50% acetonitrile (ACN). The samples were filtered and analysed by UPLC to determine the amount of ligand remaining. LC-MS analysis was performed to confirm ligand integrity and identify cleavage sites.

[3] = molecular target: T2, PSD-95-PDZ2 (Homo sapiens, UniProt P78352, V178C); experiment: SPOT peptide array screening with TAMRA labelled PSD-95-PDZ2; format: binding
T2 construct: screened with the TAMRA labelled PSD-95-PDZ2-V178C domain; 7xHis (N); made in house
In short: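 First, arrays were blocked 1 h and scanned to record background. Next, 50 nM labelled PDZ2-V178C in PBS pH 7.2 with 0.5% BSA bound for 1 h protected from light. Finally, after washes, 532 nm fluorescence was measured and background-corrected.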

[4] = molecular target: T1, PSD-95-PDZ2; experiment: Fluorescence polarization (FP) competition assay against cyclic nNOS TAMRA probe; format: binding; conditions: for Ki: FP competition, cyclic nNOS TAMRA probe, mean of triplicates, N.B. = not binding, read-out: Ki
Procedure: Fluorescence polarization (FP). FP assays were performed in a 384-well plate format. Fluorescence polarization was measured using a Safire 2 plate reader. The instrument Z-factor was optimized for each assay. The G-factor was calibrated to an initial milli polarization value of 20. The wavelength for the cyclic nNOS β-hairpin TAMRA probe was: ex: 530 nm and em: 580 nm. Every measurement was performed in NaPI 50 mM, 50 mM NaCl and 1% BSA at pH 7.2, 25° C. […] The curves were done in triplicates. Then, the polarization was fitted into a one-site binding model using Prism software 8.0 (GraphPad), from which the Kd can be measured. […] The mili polarization (mP) values were plotted as a function of peptide concentration and fitted to a sigmoidal dose-response curve using Prism software 8.0 (GraphPad). The Ki values were calculated according to Nikolovska-Coleska Z. et al.^40-41

[5] = plasmin (10 μg/mL) in phosphate buffered saline

| half-life at 100 μM [2, 5] | ΔH ([1]; ITC, 25° C.) | −ΔS*T ([1]; ITC, 25° C.) | Ki [4] | Compound | also measured |
| --- | --- | --- | --- | --- | --- |
|  | -6.6378 ± 0.1229 kcal/mol | -3.6598 ± 0.239 kcal/mol |  | CC[C@H](C)[C@@H]1NC(=O)[C@H]([C@@H](C)O)NC(=O)[C@H](CCCCN)NC(=O)[C@@H]2CCCN2C(=O)[C@H](CCC(=O)O)NC(=O)CNC(=O)[C@H](CC(=O)O)NC(=O)CNC(=O)[C@H](Cc2c[nH]c3ccccc23)NC(=O)[C@H](Cc2ccccc2)NC(=O)[C@H]([C@@H](C)O)NC(=O)[C@H]([C@@H](C)O)NC(=O)[C@H](CCC(=O)O)NC(=O)[C@H](CC(C)C)NC(=O)[C@H](Cc2cncn2C)NC(=O)[C@H]([C@@H](C)O)NC(=O)[C@H](CCC(N)=O)NC(=O)CNC(=O)[C@H]2CCCN2C(=O)[C@H](CCC(N)=O)NC(=O)[C@H]([C@@H](C)O)NC(=O)[C@H](C(C)C)NC(=O)[C@H](CCCNC(=N)N)NC1=O [compound 16] |  |
| 6 h |  |  | 1430 nM | CC[C@H](C)[C@@H]1NC(=O)[C@H]([C@@H](C)O)NC(=O)[C@H](C)NC(=O)[C@@H]2CCCN2C(=O)[C@H]([C@@H](C)O)NC(=O)CNC(=O)[C@H](CC(=O)O)NC(=O)CNC(=O)[C@H]([C@@H](C)O)NC(=O)[C@H](Cc2ccccc2)NC(=O)[C@H]([C@@H](C)O)NC(=O)[C@H]([C@@H](C)O)NC(=O)[C@H](CCC(=O)O)NC(=O)[C@H](CC(C)C)NC(=O)[C@H](Cc2c[nH]cn2)NC(=O)[C@H]([C@@H](C)O)NC(=O)[C@H](CCC(N)=O)NC(=O)CNC(=O)[C@H]2CCCN2C(=O)[C@H](CCC(N)=O)NC(=O)[C@H]([C@@H](C)O)NC(=O)[C@H](C(C)C)NC(=O)[C@H](CCCNC(=N)N)NC1=O [compound 68] (cyclo(THLETTFTGDGTPATIRVTQ[dP]GQ)) | Normalized SPOT fluorescence (Mut/WT) ([3]; SPOT array, TAMRA labelled PSD-95-PDZ2-V178C, normalized to WT): 0.39; Relative Ki (Ki mut/Ki WT) ([4]; FP inhibition constant normalized to WT value): 0.95 |
| 2.83 h |  |  | 990 nM | CC[C@H](C)[C@@H]1NC(=O)[C@H]([C@@H](C)O)NC(=O)[C@H](CCCCN)NC(=O)[C@@H]2CCCN2C(=O)[C@H]([C@@H](C)O)NC(=O)CNC(=O)[C@H](CC(=O)O)NC(=O)CNC(=O)[C@H]([C@@H](C)O)NC(=O)[C@H](Cc2ccccc2)NC(=O)[C@H]([C@@H](C)O)NC(=O)[C@H]([C@@H](C)O)NC(=O)[C@H](CCC(=O)O)NC(=O)[C@H](CC(C)C)NC(=O)[C@H](Cc2c[nH]cn2)NC(=O)[C@H]([C@@H](C)O)NC(=O)[C@H](CCC(N)=O)NC(=O)CNC(=O)[C@H]2CCCN2C(=O)[C@H](CCC(N)=O)NC(=O)[C@H]([C@@H](C)O)NC(=O)[C@H](C(C)C)NC(=O)[C@H](CCCNC(=N)N)N(C)C1=O [compound 99] |  |

Continued, compound first:

| Compound | half-life at 100 μM [2, 5] | ΔH ([1]; ITC, 25° C.) | −ΔS*T ([1]; ITC, 25° C.) | Ki [4] | also measured |
| --- | --- | --- | --- | --- | --- |
| CC[C@H](C)[C@@H]1NC(=O)[C@H]([C@@H](C)O)NC(=O)[C@H](CCCCN)NC(=O)[C@@H]2CCCN2C(=O)[C@H](CCC(=O)O)NC(=O)CNC(=O)[C@H](CC(=O)O)NC(=O)CNC(=O)[C@H](Cc2c[nH]c3ccccc23)NC(=O)[C@H](Cc2ccccc2)NC(=O)[C@H]([C@@H](C)O)NC(=O)[C@H]([C@@H](C)O)NC(=O)[C@H](CCC(=O)O)NC(=O)[C@H](CC(C)C)NC(=O)[C@H](Cc2cncn2C)NC(=O)[C@H]([C@@H](C)O)NC(=O)[C@H](CCC(N)=O)NC(=O)CNC(=O)[C@H]2CCCN2C(=O)[C@H](CCC(N)=O)NC(=O)[C@H]([C@@H](C)O)NC(=O)[C@H](C(C)C)NC(=O)[C@H](CCCNC(=N)N)NC1=O [SEQ ID NO: 16] |  |  |  |  | fold improved binding affinity compared to the wild-type peptide ([1]; ITC Kd): 75 fold |
| CC[C@H](C)[C@@H]1NC(=O)[C@H]([C@@H](C)O)NC(=O)[C@H](CCCCN)NC(=O)[C@@H]2CCCN2C(=O)[C@H]([C@@H](C)O)NC(=O)CNC(=O)[C@H](CC(=O)O)NC(=O)CNC(=O)[C@H]([C@@H](C)O)NC(=O)[C@H](Cc2ccccc2)NC(=O)[C@H]([C@@H](C)O)NC(=O)[C@H]([C@@H](C)O)NC(=O)[C@H](CCC(=O)O)NC(=O)[C@H](CC(C)C)NC(=O)[C@H](Cc2c[nH]cn2)NC(=O)[C@H]([C@@H](C)O)NC(=O)[C@H](CCC(N)=O)NC(=O)CNC(=O)[C@H]2CCCN2C(=O)[C@H](CCC(N)=O)NC(=O)[C@H]([C@@H](C)O)NC(=O)[C@H](C(C)C)NC(=O)[C@H](CCCNC(=N)N)NC1=O [compound 12] | 1.18 h | -7.7418 ± 0.6837 kcal/mol | 0.3499 ± 0.3084 kcal/mol |  |  |
| CC[C@H](C)[C@@H]1NC(=O)[C@H]([C@@H](C)O)NC(=O)[C@H](CCCCN)NC(=O)[C@@H]2CCCN2C(=O)[C@H](CCC(=O)O)NC(=O)CNC(=O)[C@H](CC(=O)O)NC(=O)CNC(=O)[C@H](Cc2c[nH]c3ccccc23)NC(=O)[C@H](Cc2ccccc2)NC(=O)[C@H]([C@@H](C)O)NC(=O)[C@H]([C@@H](C)O)NC(=O)[C@H](CCC(=O)O)NC(=O)[C@H](CC(C)C)NC(=O)[C@H](Cc2c[nH]cn2)NC(=O)[C@H]([C@@H](C)O)NC(=O)[C@H](CCC(N)=O)NC(=O)CNC(=O)[C@H]2CCCN2C(=O)[C@H](CCC(N)=O)NC(=O)[C@H]([C@@H](C)O)NC(=O)[C@H](C(C)C)NC(=O)[C@H](CCCNC(=N)N)NC1=O [compound 14] (cyclo(THLETTFWGDGEPKTIRVTQ[dP]GQ)) |  | -7.208 ± 0.8381 kcal/mol | -2.1487 ± 0.759 kcal/mol | 110 nM | Kd ([1]; ITC, 25° C., read-out: Kd): 139 ± 18.2 nM; Average (fluorescence raw data) ([3]; non-proteogenic AA scan, Hit1(T112W T116E) peptide scaffold, SPOT array incubated with TAMRA-labelled PSD-95-PDZ2, average of Pep. 1-3): 10.70 10^6; Fluor. Pep. 1 (fluorescence raw data) ([3]; non-proteogenic AA scan, Hit1(T112W T116E) peptide scaffold, SPOT array incubated with TAMRA-labelled PSD-95-PDZ2, replicate peptide 1): 9.88 10^6; Fluor. Pep. 2 (fluorescence raw data) ([3]; non-proteogenic AA scan, Hit1(T112W T116E) peptide scaffold, SPOT array incubated with TAMRA-labelled PSD-95-PDZ2, replicate peptide 2): 12.86 10^6; Fluor. Pep. 3 (fluorescence raw data) ([3]; non-proteogenic AA scan, Hit1(T112W T116E) peptide scaffold, SPOT array incubated with TAMRA-labelled PSD-95-PDZ2, replicate peptide 3): 9.36 10^6 |
| CC[C@H](C)[C@@H]1NC(=O)[C@H]([C@@H](C)O)NC(=O)[C@H](CCCCN)NC(=O)[C@@H]2CCCN2C(=O)[C@H]([C@@H](C)O)NC(=O)CNC(=O)[C@H](CC(=O)O)NC(=O)CNC(=O)[C@H](Cc2c[nH]c3ccccc23)NC(=O)[C@H](Cc2ccccc2)NC(=O)[C@H]([C@@H](C)O)NC(=O)[C@H]([C@@H](C)O)NC(=O)[C@H](CCC(=O)O)NC(=O)[C@H](CC(C)C)NC(=O)[C@H](Cc2c[nH]cn2)NC(=O)[C@H]([C@@H](C)O)NC(=O)[C@H](CCC(N)=O)NC(=O)CNC(=O)[C@H]2CCCN2C(=O)[C@H](CCC(N)=O)NC(=O)[C@H]([C@@H](C)O)NC(=O)[C@H](C(C)C)NC(=O)[C@H](CCCNC(=N)N)NC1=O [compound 163] (cyclo(THLETTFWGDGTPKTIRVTQ[dP]GQ)) |  |  |  |  | half-life at 100 μM ([2]; plasmin (isolated protease, 10 μg/mL) in PBS): 1.4 h |
| THLETTFTGDGTPKTIRVTQpGQE (THLETTFTGDGTPKTIRVTQ[dP]GQE) [SEQ ID NO: 137] |  |  |  |  | affinity (Kd) by ITC ([1]; 25° C., tested up to 100 μM): did not show binding |
